Assay results taken from ChEMBL document CHEMBL1909046, “DrugMatrix in vitro pharmacology data”.

Experiments:
[1] = DRUGMATRIX: Leukotriene, BLT (LTB4) radioligand binding (ligand: [3H]LTB4); format: cell membranes, Membrane; settings: u-937; Not Active = under 50% inhibition at 10 µM
[2] = DRUGMATRIX: Sigma2 radioligand binding (ligand: [3H] Ifenprodil); format: cell membranes, Rattus norvegicus, Wistar, Brain, Membrane; settings: Not Active = under 50% inhibition at 10 µM
[3] = target: Sodium-dependent dopamine transporter (Homo sapiens, UniProt Q01959); test: DRUGMATRIX: Dopamine Transporter radioligand binding (ligand: [125I] RTI-55); format: cell membranes, CHO-K1, Membrane; settings: cho-k1; Not Active = under 50% inhibition at 10 µM
[4] = target: Protein phosphatase 3 catalytic subunit alpha (Homo sapiens, UniProt Q08209); design: species or system Escherichia coli;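 further: inhibition of calcineurin (PP2B) enzyme activity, measured with DiFMUP as the substrate; in other assays of this panel Not Active means under 50% inhibition at 10 µM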
[5] = target: Tyrosine-protein kinase Fyn (Homo sapiens, UniProt P06241); test: biochemical; format: cell-based, Insect cells;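 further: enzymatic inhibition of Fyn kinase activity measured with Poly(Glu:Tyr) as the phosphorylation substrate; in other assays of this panel Not Active means under 50% inhibition at 10 µM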
[6] = DRUGMATRIX: Potassium Channel [KATP] radioligand binding (ligand: [3H] Glyburide); format: cell membranes, Membrane; settings: hit-t15; Not Active = under 50% inhibition at 10 µM

Tyrosine-protein kinase Fyn, sequence (P06241 whole entry): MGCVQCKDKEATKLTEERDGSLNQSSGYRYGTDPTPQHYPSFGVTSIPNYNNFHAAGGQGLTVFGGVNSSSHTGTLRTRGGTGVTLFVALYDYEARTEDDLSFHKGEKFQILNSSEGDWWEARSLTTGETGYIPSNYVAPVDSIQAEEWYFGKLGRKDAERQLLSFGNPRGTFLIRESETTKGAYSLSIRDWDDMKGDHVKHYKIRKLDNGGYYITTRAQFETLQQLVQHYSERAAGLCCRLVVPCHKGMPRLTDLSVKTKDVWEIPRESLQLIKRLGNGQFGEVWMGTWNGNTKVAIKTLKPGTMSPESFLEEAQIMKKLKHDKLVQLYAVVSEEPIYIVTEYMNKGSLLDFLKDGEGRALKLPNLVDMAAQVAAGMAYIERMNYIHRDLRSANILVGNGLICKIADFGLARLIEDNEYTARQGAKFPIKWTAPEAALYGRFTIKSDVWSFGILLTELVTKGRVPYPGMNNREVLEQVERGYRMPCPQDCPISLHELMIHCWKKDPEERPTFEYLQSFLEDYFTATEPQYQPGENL
Sodium-dependent dopamine transporter, sequence (Q01959 whole entry): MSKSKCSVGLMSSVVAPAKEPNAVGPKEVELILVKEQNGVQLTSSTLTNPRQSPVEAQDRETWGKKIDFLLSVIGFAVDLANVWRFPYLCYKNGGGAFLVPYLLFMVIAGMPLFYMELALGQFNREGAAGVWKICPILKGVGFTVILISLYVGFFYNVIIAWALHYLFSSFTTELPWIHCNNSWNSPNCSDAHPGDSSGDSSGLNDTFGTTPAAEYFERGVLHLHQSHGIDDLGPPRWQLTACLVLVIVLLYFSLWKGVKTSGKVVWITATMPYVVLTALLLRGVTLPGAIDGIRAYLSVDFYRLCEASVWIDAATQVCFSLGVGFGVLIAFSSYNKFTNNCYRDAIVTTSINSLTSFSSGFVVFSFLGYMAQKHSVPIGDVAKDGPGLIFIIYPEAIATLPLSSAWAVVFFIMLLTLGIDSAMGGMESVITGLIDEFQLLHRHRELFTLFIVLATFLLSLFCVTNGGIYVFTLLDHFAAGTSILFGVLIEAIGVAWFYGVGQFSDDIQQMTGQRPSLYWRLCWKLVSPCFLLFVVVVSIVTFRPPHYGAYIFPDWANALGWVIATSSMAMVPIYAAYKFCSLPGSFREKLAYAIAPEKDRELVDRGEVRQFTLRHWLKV

Row | Molecule | IC50 [1] | Ki [1] | IC50 [2] | Ki [2] | IC50 [3] | IC50 [4] | IC50 ([5]; insect cells) | IC50 [6] | Ki [6] | Ki [3] | Ki [4] | IC50 ([5]; insect cells, read-out: IC50) | IC50 ([5]; read-out: IC50)
1 | CO[C@@H]1[C@@H](OC)[C@H](C)[C@@](O)(CC(=O)O)O[C@H]1[C@H](C)[C@H]1O[C@@]2(CC[C@@](C)([C@H]3CC[C@@](C)([C@@H]4O[C@@H]([C@H]5O[C@](C)(O)[C@H](C)C[C@@H]5C)C[C@@H]4O[C@@H]4C[C@H](OC)[C@@H](OC)[C@H](C)O4)O3)O2)C[C@H](O)[C@H]1C.N [MADURAMICIN] | Not Active | Not Active | Not Active | Not Active | Not Active | Not Active | Not Active | Not Active | Not Active |  |  |  | 
2 | LEAD(IV) ACETATE | Not Active | Not Active | Not Active | Not Active | Not Active | Not Active |  | Not Active | Not Active | Not Active | Not Active | 3300 nM | 
3 | O=C(c1ccccc1)c1ccc2n1CCC2C(=O)O (stereo not drawn) [KETOROLAC] | Not Active | Not Active | Not Active | Not Active | Not Active | Not Active | Not Active | Not Active | Not Active |  |  |  | 
4 | CC[C@H](C)[C@@H](CO[C@@H](Cc1ccccc1)C(=O)N[C@@H](CCS(C)(=O)=O)C(=O)OC(C)C)NC[C@@H](N)CS | Not Active | Not Active | Not Active | Not Active | Not Active | Not Active |  | Not Active | Not Active |  |  |  | 813 nM
5 | CN1C(=O)OC(C)(C)C1=O [TRIMETHADIONE] | Not Active | Not Active | Not Active | Not Active | Not Active | Not Active | Not Active | Not Active | Not Active |  |  |  | 
6 | CCC(C)(C)C(=O)O[C@H]1C[C@@H](C)C=C2C=C[C@H](C)[C@H](CC[C@@H]3C[C@@H](O)CC(=O)O3)[C@H]21 [SIMVASTATIN] | Not Active | Not Active | Not Active | Not Active | Not Active | Not Active | Not Active | Not Active | Not Active |  |  |  | 
7 | Cc1ccc(S(=O)(=O)NC(=O)NN2CCCCCC2)cc1 [TOLAZAMIDE] | Not Active | Not Active | Not Active | Not Active | Not Active | Not Active | Not Active | Not Active | Not Active |  |  |  | 
8 | CC(Cl)(Cl)Cl [TRICHLOROETHANE] | Not Active | Not Active | Not Active | Not Active | Not Active | Not Active | Not Active | Not Active | Not Active |  |  |  | 
9 | CC(C)(C)NC[C@H](O)COc1cccc2c1CCCC2=O [LEVOBUNOLOL] | Not Active | Not Active | Not Active | Not Active | Not Active | Not Active | Not Active | Not Active | Not Active |  |  |  | 
10 | CCN1CCCC1CNC(=O)c1cc(S(N)(=O)=O)ccc1OC (stereo not drawn) [SULPIRIDE] | Not Active | Not Active | Not Active | Not Active | Not Active | Not Active | Not Active | Not Active | Not Active |  |  |  | 
11 | Cc1cccc(C)c1NC(=O)C(C)N (stereo not drawn) [TOCAINIDE] | Not Active | Not Active | Not Active | Not Active | Not Active | Not Active | Not Active | Not Active | Not Active |  |  |  | 
12 | CCOC(=O)C1=C(C)NC(C)=C(C(=O)OCC)C1c1ccccc1/C=C/C(=O)OC(C)(C)C [LACIDIPINE] | Not Active | Not Active | Not Active | Not Active | Not Active | Not Active | Not Active | Not Active | Not Active |  |  |  | 
13 | C=CCc1ccc2c(c1)OCO2 [SAFROLE] | Not Active | Not Active | Not Active | Not Active | Not Active | Not Active | Not Active | Not Active | Not Active |  |  |  | 
14 | O=C(OC[C@H]1O[C@@H](OC(=O)c2cc(O)c(O)c(OC(=O)c3cc(O)c(O)c(O)c3)c2)[C@H](OC(=O)c2cc(O)c(O)c(OC(=O)c3cc(O)c(O)c(O)c3)c2)[C@@H](OC(=O)c2cc(O)c(O)c(OC(=O)c3cc(O)c(O)c(O)c3)c2)[C@@H]1OC(=O)c1cc(O)c(O)c(OC(=O)c2cc(O)c(O)c(O)c2)c1)c1cc(O)c(O)c(OC(=O)c2cc(O)c(O)c(O)c2)c1 [TANNIC ACID] | Not Active | Not Active | Not Active | Not Active | Not Active | Not Active |  | Not Active | Not Active |  |  |  | 22 nM
15 | CO[C@@]12[C@H](COC(N)=O)C3=C(C(=O)C(C)=C(N)C3=O)N1C[C@@H]1N[C@@H]12 [MITOMYCIN] | Not Active | Not Active | Not Active | Not Active | Not Active | Not Active | Not Active | Not Active | Not Active |  |  |  | 
16 | Cc1[nH]c(=O)c(C#N)cc1-c1ccncc1 [MILRINONE] | Not Active | Not Active | Not Active | Not Active | Not Active | Not Active | Not Active | Not Active | Not Active |  |  |  | 
17 | O=C1CC[C@@]2(O)[C@H]3Cc4ccc(O)c5c4[C@@]2(CCN3CC2CC2)[C@H]1O5 [NALTREXONE] | Not Active | Not Active | Not Active | Not Active | Not Active | Not Active | Not Active | Not Active | Not Active |  |  |  | 
18 | COC(=O)Nc1nc2ccc(C(=O)c3ccccc3)cc2[nH]1 [MEBENDAZOLE] | Not Active | Not Active | Not Active | Not Active | Not Active | Not Active | Not Active | Not Active | Not Active |  |  |  | 
19 | CC(=O)O[C@]1(C(C)=O)CC[C@H]2[C@@H]3C[C@H](C)C4=CC(=O)CC[C@]4(C)[C@H]3CC[C@@]21C [MEDROXYPROGESTERONE ACETATE] | Not Active | Not Active | Not Active | Not Active | Not Active | Not Active | Not Active | Not Active | Not Active |  |  |  | 
20 | Cc1cn([C@H]2C=C[C@@H](CO)O2)c(=O)[nH]c1=O [STAVUDINE] | Not Active | Not Active | Not Active | Not Active | Not Active | Not Active | Not Active | Not Active | Not Active |  |  |  | 
21 | Cc1cnc(NC(=O)C2=C(O)c3ccccc3S(=O)(=O)N2C)s1 [MELOXICAM] | Not Active | Not Active | Not Active | Not Active | Not Active | Not Active | Not Active | Not Active | Not Active |  |  |  | 
22 | CC(O)C(=O)O (stereo not drawn) [LACTIC ACID] | Not Active | Not Active | Not Active | Not Active | Not Active | Not Active | Not Active | Not Active | Not Active |  |  |  | 
23 | C1CCN2C[C@@H]3C[C@@H](CN4CCCC[C@@H]34)[C@H]2C1 [SPARTEINE] | Not Active | Not Active | Not Active | Not Active | Not Active | Not Active | Not Active | Not Active | Not Active |  |  |  | 
24 | CC(N)C12CC3CC(CC(C3)C1)C2 (stereo not drawn) [RIMANTADINE] | Not Active | Not Active | Not Active | Not Active | Not Active | Not Active | Not Active | Not Active | Not Active |  |  |  | 
